One data set deals with ad libitum fed rat. Nature of the data set: Assay (I) efficacy testing on appetite (food intake) using an ad libitum fed rat model. In kind it is in vivo, Sprague Dawley (SD) rats. The conditions noted are these: 3 nmol/kg. The essentials:
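Ad libitum fed Sprague Dawley rats, 200-250 g, singly housed on reversed light cycle, got one ip, po or sc dose of 0.01-3 mg/kg just before lights off; groups of 5-8 with vehicle control. Food intake recorded hourly for 7 h, then at 24 h and sometimes 48 h; Grubbs outliers excluded.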

Data set [1] is described as follows: Assay (III) ThT fibrillation assay for physical stability. The conditions noted are these: for ThT pH 4.0 lag time: pH 4.0, ThT fibrillation assay. The class given is physicochemical. The essentials:
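Freshly prepared, pH-adjusted formulations with 1 μM ThT incubated at 37 °C under 960 rpm orbital shaking (1 mm), fluorescence (ex 444, em 485 nm) read every 20 min. […] Peptide content before and after measured by reverse-phase HPLC against pramlintide standard.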

Starred links: 1 amine or outer side, 2 acyl side, 3 side chain; linkers in the order of their positions; H or OH if unused. Positions of bridges follow the written chain, without caps; N, C: chain ends. Residues, ends and D or L forms follow the SMILES beside them. *: point of attachment. C20 diacid = O=C(O)CCCCCCCCCCCCCCCCCCC(=O)*; C18 diacid = O=C(O)CCCCCCCCCCCCCCCCC(=O)*; γGlu = O=C(O)[C@H](CCC(=O)[*:2])N[*:1]

Take `CC[C@H](C)[C@H](NC(=O)[C@@H]1CCCN1C(=O)CNC(=O)[C@H](Cc1ccccc1)NC(=O)[C@H](CC(N)=O)NC(=O)[C@H](CC(N)=O)NC(=O)[C@H](CO)NC(=O)[C@H](CO)NC(=O)[C@H](Cc1c[nH]cn1)NC(=O)[C@H](CCCNC(=N)N)NC(=O)[C@H](CC(C)C)NC(=O)[C@H](Cc1ccccc1)NC(=O)[C@H](CCC(=O)O)NC(=O)[C@H](C)NC(=O)[C@H](CC(C)C)NC(=O)[C@H](CCCNC(=N)N)NC(=O)[C@H](CCC(N)=O)NC(=O)[C@@H](NC(=O)[C@H](C)NC(=O)[C@@H]1CSSC[C@H](NC(=O)[C@H](CCCCN)NC(=O)CC[C@H](NC(=O)CCCCCCCCCCCCCCCCCCC(=O)O)C(=O)O)C(=O)N[C@@H](CC(N)=O)C(=O)N[C@@H]([C@@H](C)O)C(=O)N[C@@H](C)C(=O)N[C@@H]([C@@H](C)O)C(=O)N1)[C@@H](C)O)C(=O)N[C@@H](CC(C)C)C(=O)N1CCC[C@H]1C(=O)N1CCC[C@H]1C(=O)N[C@H](C(=O)N[C@@H](CC(N)=O)C(=O)N[C@H](C(=O)NCC(=O)N[C@@H](CO)C(=O)N[C@@H](CC(N)=O)C(=O)N[C@H](C(=O)N[C@@H](Cc1ccc(O)cc1)C(N)=O)[C@@H](C)O)C(C)C)[C@@H](C)O` [Example 50, N-alpha-[(S)-4-Carboxy-4-(19-carboxynonadecanoylamino)butyryl]-[Glu14,Arg17]-pramlintide] ({C20 diacid-γGlu}-KCNTATCATQRLAEFLRHSSNNFGPILPPTNVGSNTY-NH2; disulfide 2-7 (inferred); C-terminus assumed): in the data set with ad libitum fed rat, the “Food intake reduction 0-24 h 3 nmol/kg (%)” value is recorded as 30% and the “Food intake reduction 24-48 h 3 nmol/kg (%)” value worked out at 8%. The “ThT pH 4.0 lag time” value in data set [1] is greater than 45 h.

For the compound `CC[C@H](C)[C@H](NC(=O)[C@@H]1CCCN1C(=O)CNC(=O)[C@H](Cc1ccccc1)NC(=O)[C@H](CO)NC(=O)[C@H](CO)NC(=O)[C@H](CO)NC(=O)[C@H](CO)NC(=O)[C@H](CCCNC(=N)N)NC(=O)[C@H](Cc1c[nH]cn1)NC(=O)[C@H](CC(C)C)NC(=O)[C@H](Cc1ccccc1)NC(=O)[C@H](CCC(=O)O)NC(=O)[C@H](C)NC(=O)[C@H](CC(C)C)NC(=O)[C@H](CCCNC(=N)N)NC(=O)[C@H](CCC(N)=O)NC(=O)[C@@H](NC(=O)[C@H](C)NC(=O)[C@@H]1CSSC[C@H](NC(=O)[C@H](Cc2c[nH]cn2)NC(=O)CC[C@H](NC(=O)CCCCCCCCCCCCCCCCCCC(=O)O)C(=O)O)C(=O)N[C@@H](CC(N)=O)C(=O)N[C@@H]([C@@H](C)O)C(=O)N[C@@H](C)C(=O)N[C@@H]([C@@H](C)O)C(=O)N1)[C@@H](C)O)C(=O)N[C@@H](CC(C)C)C(=O)N1CCC[C@H]1C(=O)N1CCC[C@H]1C(=O)N[C@H](C(=O)N[C@@H](CC(=O)O)C(=O)N[C@H](C(=O)NCC(=O)N[C@@H](CO)C(=O)N[C@@H](CC(=O)O)C(=O)N[C@H](C(=O)N[C@@H](Cc1ccc(O)cc1)C(N)=O)[C@@H](C)O)C(C)C)[C@@H](C)O` [Example 9, N-alpha-[(S)-4-Carboxy-4-(19-carboxynonadecanoylamino)butyryl]-[His1,Glu14,His17,Arg18,Ser21,Ser22,Asp31,Asp35]-pramlintide] ({C20 diacid-γGlu}-HCNTATCATQRLAEFLHRSSSSFGPILPPTDVGSDTY-NH2; disulfide 2-7), in the data set on ad libitum fed rat, the “Food intake reduction 0-24 h 3 nmol/kg (%)” value is 39% and the “Food intake reduction 24-48 h 3 nmol/kg (%)” value worked out at 32%. Moreover, the “ThT pH 4.0 lag time” value in data set [1] is given as greater than 45 h.

As for `CC[C@H](C)[C@H](NC(=O)[C@@H]1CCCN1C(=O)CNC(=O)[C@H](Cc1ccccc1)NC(=O)[C@H](CC(N)=O)NC(=O)[C@H](CC(N)=O)NC(=O)[C@H](CO)NC(=O)[C@H](CO)NC(=O)[C@H](Cc1c[nH]cn1)NC(=O)[C@H](Cc1c[nH]cn1)NC(=O)[C@H](CC(C)C)NC(=O)[C@H](Cc1ccccc1)NC(=O)[C@H](CCC(=O)O)NC(=O)[C@H](C)NC(=O)[C@H](CC(C)C)NC(=O)[C@H](CCCNC(=N)N)NC(=O)[C@H](CCC(N)=O)NC(=O)[C@@H](NC(=O)[C@H](C)NC(=O)[C@@H]1CSSC[C@H](NC(=O)[C@H](CCCCN)NC(=O)CC[C@H](NC(=O)CCCCCCCCCCCCCCCCC(=O)O)C(=O)O)C(=O)N[C@@H](CC(N)=O)C(=O)N[C@@H]([C@@H](C)O)C(=O)N[C@@H](C)C(=O)N[C@@H]([C@@H](C)O)C(=O)N1)[C@@H](C)O)C(=O)N[C@@H](CC(C)C)C(=O)N1CCC[C@H]1C(=O)N1CCC[C@H]1C(=O)N[C@H](C(=O)N[C@@H](CC(N)=O)C(=O)N[C@H](C(=O)NCC(=O)N[C@@H](CO)C(=O)N[C@@H](Cc1c[nH]cn1)C(=O)N[C@H](C(=O)N[C@@H](Cc1ccc(O)cc1)C(N)=O)[C@@H](C)O)C(C)C)[C@@H](C)O` [Example 59, N-alpha-[(S)-4-Carboxy-4-(17-carboxyheptadecanoylamino)butyryl]-[Glu14,His17,His35]-pramlintide] ({C18 diacid-γGlu}-KCNTATCATQRLAEFLHHSSNNFGPILPPTNVGSHTY-NH2; disulfide 2-7), in the data set on ad libitum fed rat, the “Food intake reduction 0-24 h 3 nmol/kg (%)” value is recorded as 59% and the “Food intake reduction 24-48 h 3 nmol/kg (%)” value turned out to be 27%. Also, in data set [1], the “ThT pH 4.0 lag time (physical stability in fibrillogenesis assay)” value is given as greater than 45 h and the “ThT pH 4.0 lag time” value is listed as greater than 45 h.

Turning to `CC[C@H](C)[C@H](NC(=O)[C@@H]1CCCN1C(=O)CNC(=O)[C@H](Cc1ccccc1)NC(=O)[C@H](CC(N)=O)NC(=O)[C@H](CC(N)=O)NC(=O)[C@H](CO)NC(=O)[C@H](CO)NC(=O)[C@H](Cc1c[nH]cn1)NC(=O)[C@H](CCCNC(=N)N)NC(=O)[C@H](CC(C)C)NC(=O)[C@H](Cc1ccccc1)NC(=O)[C@H](CCC(=O)O)NC(=O)[C@H](C)NC(=O)[C@H](CC(C)C)NC(=O)[C@H](CCCNC(=N)N)NC(=O)[C@H](CCC(N)=O)NC(=O)[C@@H](NC(=O)[C@H](C)NC(=O)[C@@H]1CSSC[C@H](NC(=O)[C@H](Cc2c[nH]cn2)NC(=O)CNC(=O)CC[C@H](NC(=O)CCCCCCCCCCCCCCCCCCC(=O)O)C(=O)O)C(=O)N[C@@H](CC(N)=O)C(=O)N[C@@H]([C@@H](C)O)C(=O)N[C@@H](C)C(=O)N[C@@H]([C@@H](C)O)C(=O)N1)[C@@H](C)O)C(=O)N[C@@H](CC(C)C)C(=O)N1CCC[C@H]1C(=O)N1CCC[C@H]1C(=O)N[C@H](C(=O)N[C@@H](CC(N)=O)C(=O)N[C@H](C(=O)NCC(=O)N[C@@H](CO)C(=O)N[C@@H](CC(N)=O)C(=O)N[C@H](C(=O)N1CCC[C@H]1C(N)=O)[C@@H](C)O)C(C)C)[C@@H](C)O` [Example 89, N-alpha-[(S)-4-Carboxy-4-(19-carboxynonadecanoylamino)butyryl]-Gly-[His1,Glu14,Arg17,Pro37]-pramlintide] ({C20 diacid-γGlu}-GHCNTATCATQRLAEFLRHSSNNFGPILPPTNVGSNTP-NH2; disulfide 3-8 (inferred)), in the data set on ad libitum fed rat, the “Food intake reduction 0-24 h 3 nmol/kg (%)” value is on record as 42% and the “Food intake reduction 24-48 h 3 nmol/kg (%)” value stood at 23%. Moreover, in data set [1], the “ThT pH 4.0 lag time (physical stability in fibrillogenesis assay)” value is reported as greater than 45 h and the “ThT pH 4.0 lag time” value was greater than 45 h.

The values are drawn from US8741836B2, “Polypeptides” (Novo Nordisk A/S, priority 2011, dated 2014).
